Measured values taken from patent publication US4803272A (priority 1987, dated 1989).
Structures can show the parent of a compound that is named as a salt.

How the values were obtained:
[1] = tested on: vesicular stomatitis virus [VSV], New Jersey strain; format: cell-based; conditions: without interferon; Maden-Darby bovine kidney cells
[2] = tested on: human alpha [leucocyte] interferon; conditions: mdbk cells
spermidine synthase = target: T1, spermidine synthase (Homo sapiens, UniProt P19623); assay: Spermidine synthase inhibiting activity; format: biochemical; conditions: pH 8.2, 37°, 10 min, 20 μM decarboxylated S-adenosyl-L-methionine
T1 sequence (P19623 1-302): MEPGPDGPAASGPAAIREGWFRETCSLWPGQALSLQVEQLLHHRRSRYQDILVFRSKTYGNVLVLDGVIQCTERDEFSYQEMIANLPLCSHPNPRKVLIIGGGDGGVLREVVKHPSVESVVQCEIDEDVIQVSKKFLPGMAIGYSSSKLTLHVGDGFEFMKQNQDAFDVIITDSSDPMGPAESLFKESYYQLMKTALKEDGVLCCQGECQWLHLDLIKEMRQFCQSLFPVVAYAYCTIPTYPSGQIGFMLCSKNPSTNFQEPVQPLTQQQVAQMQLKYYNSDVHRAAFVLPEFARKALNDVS
Description: Reactions were initiated by the addition of enzyme and incubated for 10 minues at 37° . The reactions were stopped by the additions of 5 μL of 100 mM spermidine and 5 μL of a slurry of 160 mg/mL of Darco G60 in water. The mixtures were centrifuged at 10,000×g for 2 minutes and a 40 μL aliquot of the supernate counted. Blank reactions were run using zero incubation time, or omitting enzyme or putrescine.
This assay made use of the adsorption of unreacted substrate, decarboxylated S-adenosyl-L-methionine, on charcoal while leaving the product polyamine in solution.

B16 melanoma cells = conditions: DFMO in combination with interferon; cited from earlier work
human gamma interferon = format: cell-based
human beta interferon = format: cell-based

Structure (SMILES)	antiviral activity of compound by itself against VSV [1]	potentiation of human alpha interferon [2] [×]	IC50 (spermidine synthase) [µM]	suppression of tumor growth of B16 melanoma cells (B16 melanoma cells)	potentiation of human gamma interferon (human gamma interferon) [×]	potentiation of human alpha [leucocyte] interferon [2] [×]	potentiation of human beta interferon (human beta interferon) [×]
NCCCCCC(CCN)SC[C@@H]1C[C@H](n2cnc3c(N)ncnc32)[C@@H](O)[C@H]1O (relative stereo) [Example 3, 1,t-(9-adenyl)-2,c-3,c-dihydroxy-4,t-[2-thia-3-(2-aminoethyl)-8-aminooctyl]cyclopentane hydrochloride]	no antiviral activity	2	2				
NCCC[C@](N)(C(=O)O)C(F)F [DFMO, α-difluoromethyl ornithine]				total or near total suppression			
NCCCCCC(CCN)SCCOCn1cnc2c(N)ncnc21 (stereo not shown) [Example 1, 9-[2-oxa-5-thia-6-(2-aminoethyl)-11-aminoundecyl]-6-aminopurine]	no antiviral activity	8	~100		4	2	16
